# According to PMC4392994, “Kinetic Characterization and Effect of Immobilized Thermostable β-Glucosidase in Alginate Gel Beads on Sugarcane Juice” (ISRN Biochemistry, 2014):
# System: T1, β-glucosidase
# T1 construct: recombinant, cloned and expressed in E. coli DH5alpha; extracellular, from culture supernatant; partially purified (ammonium sulfate, dialysis); EC 3.2.1.21
# Assay: p-nitrophenol release at […] nm, Lineweaver-Burk plot
# Assay type: biochemical, Bacillus subtilis
# Details: free enzyme, partially purified; acetate buffer 100 mM, pH 5.0, 60 °C, 30 min; 1–15 mM substrate
structure (smiles),measurement,value
O=[N+]([O-])c1ccc(O[C@@H]2O[C@H](CO)[C@@H](O)[C@H](O)[C@H]2O)cc1 [pNPG],Km,3.6 mM
